What all share (experiment): Kinase profiling
What all share (format): biochemical

One assay has as its target T1, PKCmu (Homo sapiens, UniProt Q15139).
T1 construct: purchased ProQinase (Freiburg, Germany)
T1 sequence (Q15139 1-912): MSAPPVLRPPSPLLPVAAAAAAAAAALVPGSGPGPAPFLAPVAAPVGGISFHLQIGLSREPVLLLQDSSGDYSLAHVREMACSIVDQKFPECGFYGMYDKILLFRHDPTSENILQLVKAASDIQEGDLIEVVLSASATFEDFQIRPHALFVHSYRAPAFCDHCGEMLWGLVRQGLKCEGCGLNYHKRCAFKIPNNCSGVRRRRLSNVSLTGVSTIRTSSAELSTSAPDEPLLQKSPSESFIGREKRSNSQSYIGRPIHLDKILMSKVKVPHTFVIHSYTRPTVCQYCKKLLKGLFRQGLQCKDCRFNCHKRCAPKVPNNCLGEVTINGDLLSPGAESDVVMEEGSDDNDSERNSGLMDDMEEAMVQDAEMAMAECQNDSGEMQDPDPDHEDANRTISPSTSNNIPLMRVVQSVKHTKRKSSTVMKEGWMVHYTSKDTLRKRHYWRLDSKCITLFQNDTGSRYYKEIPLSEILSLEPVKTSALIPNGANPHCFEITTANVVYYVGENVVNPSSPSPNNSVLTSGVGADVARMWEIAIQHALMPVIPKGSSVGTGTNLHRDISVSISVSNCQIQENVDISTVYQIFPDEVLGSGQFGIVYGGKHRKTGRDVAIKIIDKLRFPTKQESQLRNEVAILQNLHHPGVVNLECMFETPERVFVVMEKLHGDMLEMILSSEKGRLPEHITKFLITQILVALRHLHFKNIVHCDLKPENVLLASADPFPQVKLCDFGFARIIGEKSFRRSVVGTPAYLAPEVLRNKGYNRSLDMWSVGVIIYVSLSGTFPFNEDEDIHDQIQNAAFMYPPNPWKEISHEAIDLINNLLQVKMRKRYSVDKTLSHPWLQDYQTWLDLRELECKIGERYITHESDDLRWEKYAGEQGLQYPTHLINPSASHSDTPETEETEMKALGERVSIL
The protocol:
(§1) The analysis was performed by ProQinase (Freiburg, Germany).

The target of the next assay is T2, TEC (Homo sapiens, UniProt P42680).
T2 construct: purchased ProQinase (Freiburg, Germany)
T2 sequence (P42680 1-631): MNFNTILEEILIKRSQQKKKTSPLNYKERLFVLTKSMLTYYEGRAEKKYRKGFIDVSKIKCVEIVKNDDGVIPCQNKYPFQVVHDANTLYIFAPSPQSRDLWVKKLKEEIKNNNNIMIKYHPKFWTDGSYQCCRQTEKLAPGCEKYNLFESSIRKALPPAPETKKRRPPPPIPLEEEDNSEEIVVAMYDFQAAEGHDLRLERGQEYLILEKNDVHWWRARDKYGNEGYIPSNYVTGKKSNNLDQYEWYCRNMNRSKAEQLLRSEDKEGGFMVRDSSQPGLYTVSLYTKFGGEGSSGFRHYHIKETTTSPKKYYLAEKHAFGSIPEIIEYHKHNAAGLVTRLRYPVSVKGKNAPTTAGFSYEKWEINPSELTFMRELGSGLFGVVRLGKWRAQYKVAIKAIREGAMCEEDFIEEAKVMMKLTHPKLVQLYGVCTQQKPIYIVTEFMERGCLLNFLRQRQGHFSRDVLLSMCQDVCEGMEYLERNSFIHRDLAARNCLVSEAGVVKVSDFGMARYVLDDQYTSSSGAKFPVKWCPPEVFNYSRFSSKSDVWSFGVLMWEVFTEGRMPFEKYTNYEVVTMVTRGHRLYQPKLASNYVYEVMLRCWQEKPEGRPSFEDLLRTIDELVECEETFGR
The protocol:
as §1

The target of another assay is T3, RIPK4 (Homo sapiens, UniProt P57078).
T3 construct: purchased ProQinase (Freiburg, Germany)
T3 sequence (P57078 1-832): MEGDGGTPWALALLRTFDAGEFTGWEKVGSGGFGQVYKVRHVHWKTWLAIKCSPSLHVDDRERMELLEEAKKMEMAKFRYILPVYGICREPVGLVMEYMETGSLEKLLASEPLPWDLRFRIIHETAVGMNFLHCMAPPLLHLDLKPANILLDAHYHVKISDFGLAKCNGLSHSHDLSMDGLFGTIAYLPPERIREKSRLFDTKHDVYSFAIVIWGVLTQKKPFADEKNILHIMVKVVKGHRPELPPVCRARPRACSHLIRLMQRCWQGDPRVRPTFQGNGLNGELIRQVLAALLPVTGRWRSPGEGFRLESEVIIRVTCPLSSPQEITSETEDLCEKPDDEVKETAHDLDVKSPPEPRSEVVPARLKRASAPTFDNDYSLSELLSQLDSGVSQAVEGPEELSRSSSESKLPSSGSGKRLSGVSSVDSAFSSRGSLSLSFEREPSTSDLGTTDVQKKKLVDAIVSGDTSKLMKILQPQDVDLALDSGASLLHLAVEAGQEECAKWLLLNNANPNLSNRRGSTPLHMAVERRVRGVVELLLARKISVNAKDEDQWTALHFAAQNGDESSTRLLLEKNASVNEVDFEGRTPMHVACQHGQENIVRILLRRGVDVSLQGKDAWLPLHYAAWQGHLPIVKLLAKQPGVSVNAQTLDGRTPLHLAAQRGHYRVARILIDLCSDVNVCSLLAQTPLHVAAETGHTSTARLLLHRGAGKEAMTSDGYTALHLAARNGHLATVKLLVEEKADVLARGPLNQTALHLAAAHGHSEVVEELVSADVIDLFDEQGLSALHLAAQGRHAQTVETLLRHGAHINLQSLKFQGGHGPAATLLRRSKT
As for the experimental part:
as §1

The target of a further assay is T4, PAK2 (Homo sapiens, UniProt Q13177).
T4 construct: purchased ProQinase (Freiburg, Germany)
As for the experimental part: as §1

For a further assay, the target named is T5, MLK4 (Homo sapiens, UniProt Q5TCX8).
T5 construct: purchased ProQinase (Freiburg, Germany)
As for the experimental part: as §1

A further assay concerns the target T6, MAP3K1 (Homo sapiens, UniProt Q13233).
T6 construct: purchased ProQinase (Freiburg, Germany)
The protocol:
as §1

For a further assay, the target named is T7, NEK7 (Homo sapiens, UniProt Q8TDX7).
T7 construct: purchased ProQinase (Freiburg, Germany)
As for the experimental part: as §1

For the next assay, the target named is T8, VEGFR3 (Homo sapiens, UniProt P35916).
T8 construct: purchased ProQinase (Freiburg, Germany)
The protocol: as §1

For the next assay, the target named is T9, INSR (Homo sapiens, UniProt P06213).
T9 construct: purchased ProQinase (Freiburg, Germany)
The protocol: as §1

Another assay addresses T10, PASK (Homo sapiens, UniProt Q96RG2).
T10 construct: purchased ProQinase (Freiburg, Germany)
As for the experimental part:
as §1

Two compounds from paper PMC9030254, “Target Hopping from Protein Kinases to PXR: Identification of Small-Molecule Protein Kinase Inhibitors as Selective Modulators of Pregnane X Receptor from TüKIC Library” (Cells, 2022) can be followed below.

T10 sequence (Q96RG2 whole entry): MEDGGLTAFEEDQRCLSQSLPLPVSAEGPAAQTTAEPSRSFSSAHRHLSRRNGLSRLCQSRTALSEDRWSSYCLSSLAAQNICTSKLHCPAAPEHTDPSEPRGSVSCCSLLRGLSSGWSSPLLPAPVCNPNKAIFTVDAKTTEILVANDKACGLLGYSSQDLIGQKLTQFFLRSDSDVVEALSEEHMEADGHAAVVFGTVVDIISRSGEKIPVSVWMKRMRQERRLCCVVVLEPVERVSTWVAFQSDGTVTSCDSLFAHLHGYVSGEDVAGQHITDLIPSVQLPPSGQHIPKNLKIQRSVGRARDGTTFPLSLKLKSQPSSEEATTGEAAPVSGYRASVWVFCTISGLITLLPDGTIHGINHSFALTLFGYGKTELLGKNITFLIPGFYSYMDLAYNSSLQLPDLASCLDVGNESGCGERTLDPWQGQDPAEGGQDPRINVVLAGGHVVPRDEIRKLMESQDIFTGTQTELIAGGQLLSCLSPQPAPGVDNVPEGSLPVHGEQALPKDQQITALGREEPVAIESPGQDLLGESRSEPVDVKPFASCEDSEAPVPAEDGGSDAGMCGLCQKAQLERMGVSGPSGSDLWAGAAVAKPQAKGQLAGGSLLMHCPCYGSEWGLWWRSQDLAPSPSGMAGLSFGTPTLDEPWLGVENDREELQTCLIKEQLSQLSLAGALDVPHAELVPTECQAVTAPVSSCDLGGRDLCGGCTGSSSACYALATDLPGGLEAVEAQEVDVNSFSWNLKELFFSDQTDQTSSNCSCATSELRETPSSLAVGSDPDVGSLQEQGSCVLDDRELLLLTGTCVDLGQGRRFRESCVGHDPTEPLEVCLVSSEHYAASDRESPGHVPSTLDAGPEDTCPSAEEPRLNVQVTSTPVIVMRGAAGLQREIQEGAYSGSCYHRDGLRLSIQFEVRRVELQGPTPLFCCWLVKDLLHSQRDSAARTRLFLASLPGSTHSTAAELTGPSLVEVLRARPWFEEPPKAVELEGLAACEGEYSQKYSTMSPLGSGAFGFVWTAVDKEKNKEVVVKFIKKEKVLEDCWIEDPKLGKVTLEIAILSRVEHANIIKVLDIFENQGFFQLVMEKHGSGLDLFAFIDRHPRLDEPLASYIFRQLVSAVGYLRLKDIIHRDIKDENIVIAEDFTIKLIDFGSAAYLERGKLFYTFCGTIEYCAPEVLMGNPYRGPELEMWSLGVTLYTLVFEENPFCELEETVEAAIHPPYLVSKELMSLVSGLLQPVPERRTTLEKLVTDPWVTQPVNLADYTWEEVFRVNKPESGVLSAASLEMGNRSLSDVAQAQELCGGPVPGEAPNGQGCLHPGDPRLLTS
T6 sequence (Q13233 whole entry): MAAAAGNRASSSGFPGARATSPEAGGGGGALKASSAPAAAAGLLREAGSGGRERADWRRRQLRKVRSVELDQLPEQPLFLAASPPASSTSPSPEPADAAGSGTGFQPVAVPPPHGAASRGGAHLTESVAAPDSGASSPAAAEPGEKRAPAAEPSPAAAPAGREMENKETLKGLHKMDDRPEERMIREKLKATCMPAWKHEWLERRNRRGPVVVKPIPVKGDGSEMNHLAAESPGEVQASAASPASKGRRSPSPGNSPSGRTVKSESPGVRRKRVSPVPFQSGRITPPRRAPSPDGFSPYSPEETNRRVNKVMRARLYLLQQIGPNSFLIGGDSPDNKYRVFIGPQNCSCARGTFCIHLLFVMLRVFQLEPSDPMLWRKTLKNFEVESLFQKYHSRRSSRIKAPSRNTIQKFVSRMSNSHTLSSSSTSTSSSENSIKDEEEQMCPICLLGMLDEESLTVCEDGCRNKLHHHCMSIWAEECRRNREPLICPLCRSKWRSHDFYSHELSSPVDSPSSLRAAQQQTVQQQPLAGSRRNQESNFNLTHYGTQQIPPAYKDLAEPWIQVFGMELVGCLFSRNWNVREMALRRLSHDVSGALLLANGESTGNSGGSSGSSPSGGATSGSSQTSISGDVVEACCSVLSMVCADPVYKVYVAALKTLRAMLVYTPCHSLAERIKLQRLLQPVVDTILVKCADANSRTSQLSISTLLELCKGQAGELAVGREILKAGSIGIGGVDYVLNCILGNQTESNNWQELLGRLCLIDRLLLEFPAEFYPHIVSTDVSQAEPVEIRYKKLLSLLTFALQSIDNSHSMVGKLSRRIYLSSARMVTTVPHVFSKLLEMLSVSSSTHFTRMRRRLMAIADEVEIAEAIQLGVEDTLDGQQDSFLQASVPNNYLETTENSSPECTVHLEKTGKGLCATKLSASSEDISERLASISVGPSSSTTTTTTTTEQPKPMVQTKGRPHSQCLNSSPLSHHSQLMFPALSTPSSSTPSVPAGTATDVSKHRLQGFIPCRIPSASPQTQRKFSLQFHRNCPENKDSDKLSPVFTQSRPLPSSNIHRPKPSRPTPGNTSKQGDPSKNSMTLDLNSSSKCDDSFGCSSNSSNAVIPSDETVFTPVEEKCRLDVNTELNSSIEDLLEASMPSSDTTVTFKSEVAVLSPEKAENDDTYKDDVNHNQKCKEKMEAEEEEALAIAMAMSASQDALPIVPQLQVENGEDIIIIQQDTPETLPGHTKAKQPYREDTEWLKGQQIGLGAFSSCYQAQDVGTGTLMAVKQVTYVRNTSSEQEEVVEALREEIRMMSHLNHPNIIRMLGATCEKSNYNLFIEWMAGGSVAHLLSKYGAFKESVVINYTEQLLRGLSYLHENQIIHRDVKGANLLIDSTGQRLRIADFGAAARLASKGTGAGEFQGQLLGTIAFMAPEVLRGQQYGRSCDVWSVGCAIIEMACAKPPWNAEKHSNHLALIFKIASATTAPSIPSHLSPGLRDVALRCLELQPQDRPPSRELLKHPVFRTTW
T9 sequence (P06213 28-1382): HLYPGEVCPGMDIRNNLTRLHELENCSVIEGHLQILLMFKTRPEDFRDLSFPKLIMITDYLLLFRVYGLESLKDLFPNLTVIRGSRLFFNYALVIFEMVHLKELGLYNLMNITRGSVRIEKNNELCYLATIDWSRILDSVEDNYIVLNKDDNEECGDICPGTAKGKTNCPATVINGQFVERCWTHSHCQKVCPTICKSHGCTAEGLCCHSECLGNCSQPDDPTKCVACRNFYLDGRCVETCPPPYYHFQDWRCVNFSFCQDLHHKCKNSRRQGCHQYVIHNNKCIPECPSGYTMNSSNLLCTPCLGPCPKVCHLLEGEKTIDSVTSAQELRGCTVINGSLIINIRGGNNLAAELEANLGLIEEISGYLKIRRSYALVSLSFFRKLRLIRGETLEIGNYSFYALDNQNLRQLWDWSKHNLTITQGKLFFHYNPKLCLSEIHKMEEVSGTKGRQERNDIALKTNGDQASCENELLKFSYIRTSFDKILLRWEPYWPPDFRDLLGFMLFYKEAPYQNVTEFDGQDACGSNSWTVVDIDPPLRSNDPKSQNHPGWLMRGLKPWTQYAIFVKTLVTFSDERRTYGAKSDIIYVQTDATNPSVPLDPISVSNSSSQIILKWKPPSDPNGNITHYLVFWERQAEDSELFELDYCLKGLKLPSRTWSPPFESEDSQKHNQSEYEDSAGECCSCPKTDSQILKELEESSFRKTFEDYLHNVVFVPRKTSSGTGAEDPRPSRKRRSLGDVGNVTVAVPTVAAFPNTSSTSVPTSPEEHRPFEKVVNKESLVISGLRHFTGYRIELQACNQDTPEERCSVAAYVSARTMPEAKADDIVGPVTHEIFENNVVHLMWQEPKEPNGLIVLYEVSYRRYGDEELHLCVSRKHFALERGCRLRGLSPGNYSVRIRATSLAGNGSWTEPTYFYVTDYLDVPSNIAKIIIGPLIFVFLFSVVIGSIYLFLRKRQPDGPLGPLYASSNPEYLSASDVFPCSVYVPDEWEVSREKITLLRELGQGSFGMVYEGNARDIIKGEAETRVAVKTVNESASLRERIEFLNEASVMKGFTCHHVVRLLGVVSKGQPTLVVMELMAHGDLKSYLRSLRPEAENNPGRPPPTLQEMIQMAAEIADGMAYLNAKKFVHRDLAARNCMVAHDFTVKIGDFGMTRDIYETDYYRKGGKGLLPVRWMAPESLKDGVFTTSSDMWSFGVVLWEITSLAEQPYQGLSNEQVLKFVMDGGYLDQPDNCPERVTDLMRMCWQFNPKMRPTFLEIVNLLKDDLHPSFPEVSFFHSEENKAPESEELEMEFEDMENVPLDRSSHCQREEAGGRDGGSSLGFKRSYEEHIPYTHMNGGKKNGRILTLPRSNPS
T4 sequence (Q13177 whole entry): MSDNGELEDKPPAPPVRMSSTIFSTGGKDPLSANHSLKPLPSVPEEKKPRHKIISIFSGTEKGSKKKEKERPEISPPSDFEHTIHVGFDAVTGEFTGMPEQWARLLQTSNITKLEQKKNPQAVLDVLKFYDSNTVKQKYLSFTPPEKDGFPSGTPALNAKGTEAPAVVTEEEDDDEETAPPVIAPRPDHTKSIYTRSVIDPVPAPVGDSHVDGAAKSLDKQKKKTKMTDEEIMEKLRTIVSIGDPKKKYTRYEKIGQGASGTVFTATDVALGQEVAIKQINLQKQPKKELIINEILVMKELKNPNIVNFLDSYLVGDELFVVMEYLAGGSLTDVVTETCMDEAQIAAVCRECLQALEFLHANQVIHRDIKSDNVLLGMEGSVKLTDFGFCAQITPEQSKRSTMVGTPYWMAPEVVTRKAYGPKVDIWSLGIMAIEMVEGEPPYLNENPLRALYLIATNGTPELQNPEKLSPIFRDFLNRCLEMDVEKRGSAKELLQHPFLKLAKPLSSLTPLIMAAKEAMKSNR
T7 sequence (Q8TDX7 whole entry): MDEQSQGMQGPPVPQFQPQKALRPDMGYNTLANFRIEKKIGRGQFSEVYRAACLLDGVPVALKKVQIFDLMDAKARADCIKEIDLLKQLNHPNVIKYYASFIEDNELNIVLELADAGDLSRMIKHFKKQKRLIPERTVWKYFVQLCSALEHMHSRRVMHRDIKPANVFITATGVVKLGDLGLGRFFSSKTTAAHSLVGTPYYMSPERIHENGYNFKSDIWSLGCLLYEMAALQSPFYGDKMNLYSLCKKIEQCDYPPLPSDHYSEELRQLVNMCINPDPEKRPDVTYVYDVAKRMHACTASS

In the case of `O=C(Nc1ccc(F)c(Nc2ccc3c(c2)CCCCC3=O)c1)c1cccc(F)c1` [Compound 109], the Residual activity on PKCmu (1.0E-05 M) is on record as 96 % of control; on PKCmu (1.0E-06 M), 95 % of control; at TEC (1.0E-05 M) it was 80 % of control; at TEC (1.0E-06 M), 94 % of control; at RIPK4 (1.0E-05 M), 100 % of control; at RIPK4 (1.0E-06 M), 103 % of control. Moreover, the Residual activity at PAK2 (1.0E-05 M) is reported as 69 % of control; on PAK2 (1.0E-06 M) it was 91 % of control; at MLK4 (1.0E-05 M), 99 % of control; on MLK4 (1.0E-06 M) it was 99 % of control; on MAP3K1 (1.0E-05 M), 93 % of control; on MAP3K1 (1.0E-06 M) it was 96 % of control. For the same compound, the Residual activity on NEK7 (1.0E-05 M) is 121 % of control; on NEK7 (1.0E-06 M), 108 % of control; at VEGFR3 (1.0E-05 M), 88 % of control; at VEGFR3 (1.0E-06 M) it was 105 % of control; at INSR (1.0E-05 M), 84 % of control; at INSR (1.0E-06 M) it was 95 % of control. The Residual activity on PASK (1.0E-05 M) was 97 % of control; on PASK (1.0E-06 M) it was 95 % of control.
Regarding `O=C(Cc1ccccc1)Nc1ccc(F)c(Nc2ccc3c(c2)CCCCC3=O)c1` [Compound 100], the Residual activity is listed as 94 % of control on PKCmu (1.0E-05 M); 106 % of control at PKCmu (1.0E-06 M); 69 % of control on TEC (1.0E-05 M); 88 % of control on TEC (1.0E-06 M); 98 % of control on RIPK4 (1.0E-05 M); 103 % of control on RIPK4 (1.0E-06 M). Further, the Residual activity was 68 % of control at PAK2 (1.0E-05 M); 101 % of control at PAK2 (1.0E-06 M); 102 % of control on MLK4 (1.0E-05 M); 94 % of control on MLK4 (1.0E-06 M); 83 % of control on MAP3K1 (1.0E-05 M); 96 % of control on MAP3K1 (1.0E-06 M). The Residual activity at NEK7 (1.0E-05 M) is listed as 118 % of control; on NEK7 (1.0E-06 M) it was 109 % of control; on VEGFR3 (1.0E-05 M), 84 % of control; at VEGFR3 (1.0E-06 M), 108 % of control; at INSR (1.0E-05 M) it was 92 % of control; at INSR (1.0E-06 M), 95 % of control. Moreover, the Residual activity at PASK (1.0E-05 M) was 97 % of control; on PASK (1.0E-06 M) it was 107 % of control.
